# Experimental data taken from PubChem BioAssay (NCI).
#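 Protocol summary: plate cells (96-well), add compound at 5 concentrations, incubate 48 h, interpolate endpoints linearly. TGI: total growth inhibition.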
# What was measured:
# Test in all cases: NCI anticancer screen, dose series, 48 h
# [1] = tested on: SF-539 CNS
# [2] = tested on: MOLT-4 leukemia
# [3] = tested on: HCT-15 colon
# [4] = tested on: SNB-19 CNS
# [5] = tested on: SW-620 colon
# [6] = tested on: MALME-3M melanoma
# [7] = tested on: HOP-62 NSCLC
# [8] = tested on: HCC-2998 colon
# [9] = tested on: SK-MEL-5 melanoma
# [10] = tested on: CAKI-1 renal
# [11] = tested on: K-562 leukemia
# [12] = tested on: UO-31 renal
# [13] = tested on: DU-145 prostate
# [14] = tested on: 786-0 renal
# [15] = tested on: NCI-H522 lung
# [16] = tested on: SF-295 CNS
# [17] = tested on: NCI-H23 lung
# [18] = tested on: HCT-116 colon
# [19] = tested on: SK-OV-3 ovarian
# [20] = tested on: OVCAR-5 ovarian
# [21] = tested on: LOX IMVI melanoma
# [22] = tested on: MDA-MB-435
# [23] = tested on: SK-MEL-2 melanoma
# [24] = tested on: IGROV1 ovarian
# [25] = tested on: EKVX NSCLC
# [26] = tested on: UACC-62 melanoma
# [27] = tested on: RPMI-8226 leukemia
# [28] = tested on: MDA-N
# [29] = tested on: A549 NSCLC
# [30] = tested on: OVCAR-3 ovarian
# [31] = tested on: A498 renal
# [32] = tested on: NCI/ADR-RES ovarian
# [33] = tested on: MDA-MB-231 breast
# [34] = tested on: OVCAR-4 ovarian
# [35] = tested on: KM12 colon
# [36] = tested on: HL-60(TB) leukemia
# [37] = tested on: T-47D breast
# [38] = tested on: M14 melanoma
# [39] = tested on: RXF 393 renal
# [40] = tested on: MCF7 breast
# [41] = tested on: HOP-92 NSCLC
# [42] = tested on: SN12C renal
# [43] = tested on: TK-10 renal
# [44] = tested on: ACHN renal
# [45] = tested on: COLO 205 colon
# [46] = tested on: UACC-257 melanoma
# [47] = tested on: SNB-75 CNS
# [48] = tested on: U251 CNS
# [49] = tested on: PC-3 prostate
# [50] = tested on: SK-MEL-28 melanoma
# [51] = tested on: NCI-H226 lung
# [52] = tested on: OVCAR-8 ovarian
# [53] = tested on: HT29 colon
# [54] = tested on: NCI-H460 lung
# [55] = tested on: HS 578T breast
# [56] = tested on: BT-549 breast
# [57] = tested on: SR leukemia
# [58] = tested on: SF-268 CNS
# [59] = tested on: CCRF-CEM leukemia
structure (smiles),measurement,setting,value
O=C(NNCc1ccccc1O)c1ccccc1O,TGI,[1],> 100 µM
same,TGI,[2],> 100 µM
same,TGI,[3],> 100 µM
same,TGI,[4],> 100 µM
same,TGI,[5],> 100 µM
same,TGI,[6],> 100 µM
same,TGI,[7],> 100 µM
same,TGI,[8],45.1 µM
same,TGI,[9],25.8 µM
same,TGI,[10],> 100 µM
same,TGI,[11],> 100 µM
same,TGI,[12],16.5 µM
same,TGI,[13],43.4 µM
same,TGI,[14],> 100 µM
same,TGI,[15],> 100 µM
same,TGI,[16],17.4 µM
same,TGI,[17],> 100 µM
same,TGI,[18],> 100 µM
same,TGI,[19],68.6 µM
same,TGI,[20],96.3 µM
same,TGI,[21],> 100 µM
same,TGI,[22],> 100 µM
same,TGI,[23],25.8 µM
same,TGI,[24],> 100 µM
same,TGI,[25],> 100 µM
same,TGI,[26],55.9 µM
same,TGI,[27],> 100 µM
same,TGI,[28],> 100 µM
same,TGI,[29],> 100 µM
same,TGI,[30],6.29 µM
same,TGI,[31],> 100 µM
same,TGI,[32],40.4 µM
same,TGI,[33],> 100 µM
same,TGI,[34],> 100 µM
same,TGI,[35],> 100 µM
same,TGI,[36],4.17 µM
same,TGI,[37],35 µM
same,TGI,[38],24.2 µM
same,TGI,[39],> 100 µM
same,TGI,[40],80.3 µM
same,TGI,[41],> 100 µM
same,TGI,[42],> 100 µM
same,TGI,[43],> 100 µM
same,TGI,[44],> 100 µM
same,TGI,[45],> 100 µM
same,TGI,[46],> 100 µM
same,TGI,[47],> 100 µM
same,TGI,[48],> 100 µM
same,TGI,[49],> 100 µM
same,TGI,[50],> 100 µM
same,TGI,[51],> 100 µM
same,TGI,[52],> 100 µM
same,TGI,[53],> 100 µM
Clc1cccc(N=C/C=C/Nc2cccc(Cl)c2)c1,TGI,[1],34.2 µM
same,TGI,[2],73.2 µM
same,TGI,[3],37.7 µM
same,TGI,[5],43.9 µM
same,TGI,[7],30.7 µM
same,TGI,[8],25.2 µM
same,TGI,[9],44 µM
same,TGI,[10],65.1 µM
same,TGI,[12],34.2 µM
same,TGI,[54],35.2 µM
same,TGI,[13],96.2 µM
same,TGI,[55],> 100 µM
same,TGI,[14],37.4 µM
same,TGI,[15],29.3 µM
same,TGI,[16],24.4 µM
same,TGI,[17],54 µM
same,TGI,[18],28.2 µM
same,TGI,[20],59.9 µM
same,TGI,[21],20.6 µM
same,TGI,[22],28.9 µM
same,TGI,[24],39.3 µM
same,TGI,[27],> 100 µM
same,TGI,[28],26.8 µM
same,TGI,[29],83.9 µM
same,TGI,[30],45.4 µM
same,TGI,[31],49.7 µM
same,TGI,[32],31.4 µM
same,TGI,[33],29.4 µM
same,TGI,[34],> 100 µM
same,TGI,[35],27.1 µM
same,TGI,[36],39.9 µM
same,TGI,[56],33.2 µM
same,TGI,[39],52.5 µM
same,TGI,[40],43.6 µM
same,TGI,[41],> 100 µM
same,TGI,[42],27 µM
same,TGI,[43],> 100 µM
same,TGI,[45],29.8 µM
same,TGI,[46],32.2 µM
same,TGI,[48],30.3 µM
same,TGI,[49],28.4 µM
same,TGI,[57],62.3 µM
same,TGI,[50],29.6 µM
same,TGI,[52],38.9 µM
same,TGI,[53],34 µM
N#CC(=S)Nc1ccc(F)cc1,TGI,[1],> 100 µM
same,TGI,[2],> 100 µM
same,TGI,[3],> 100 µM
same,TGI,[4],> 100 µM
same,TGI,[5],> 100 µM
same,TGI,[6],> 100 µM
same,TGI,[7],> 100 µM
same,TGI,[8],> 100 µM
same,TGI,[9],75.8 µM
same,TGI,[10],> 100 µM
same,TGI,[11],> 100 µM
same,TGI,[54],> 100 µM
same,TGI,[13],> 100 µM
same,TGI,[14],> 100 µM
same,TGI,[16],> 100 µM
same,TGI,[17],> 100 µM
same,TGI,[18],> 100 µM
same,TGI,[19],> 100 µM
same,TGI,[20],> 100 µM
same,TGI,[21],> 100 µM
same,TGI,[22],> 100 µM
same,TGI,[23],> 100 µM
same,TGI,[24],> 100 µM
same,TGI,[25],> 100 µM
same,TGI,[26],> 100 µM
same,TGI,[27],41.6 µM
same,TGI,[28],> 100 µM
same,TGI,[29],> 100 µM
same,TGI,[30],> 100 µM
same,TGI,[31],90.5 µM
same,TGI,[32],> 100 µM
same,TGI,[33],> 100 µM
same,TGI,[34],> 100 µM
same,TGI,[35],> 100 µM
same,TGI,[36],91.3 µM
same,TGI,[56],> 100 µM
same,TGI,[37],> 100 µM
same,TGI,[38],> 100 µM
same,TGI,[39],> 100 µM
same,TGI,[40],> 100 µM
same,TGI,[41],68.3 µM
same,TGI,[58],> 100 µM
same,TGI,[42],> 100 µM
same,TGI,[43],> 100 µM
same,TGI,[44],> 100 µM
same,TGI,[45],> 100 µM
same,TGI,[46],> 100 µM
same,TGI,[47],> 100 µM
same,TGI,[48],> 100 µM
same,TGI,[59],54.9 µM
same,TGI,[49],> 100 µM
same,TGI,[57],> 100 µM
same,TGI,[50],> 100 µM
same,TGI,[51],> 100 µM
same,TGI,[52],> 100 µM
same,TGI,[53],> 100 µM
